Measured values as given in BindingDB's records for doi:10.1021/jm00145a012 (1985).

The compounds below were run against Dihydrofolate reductase (Bos taurus) (UniProt P00376) (assay: In vitro inhibitory concentration against beef liver dihydrofolate reductase).
Dihydrofolate reductase (Bos taurus), sequence (P00376 whole entry, looked up): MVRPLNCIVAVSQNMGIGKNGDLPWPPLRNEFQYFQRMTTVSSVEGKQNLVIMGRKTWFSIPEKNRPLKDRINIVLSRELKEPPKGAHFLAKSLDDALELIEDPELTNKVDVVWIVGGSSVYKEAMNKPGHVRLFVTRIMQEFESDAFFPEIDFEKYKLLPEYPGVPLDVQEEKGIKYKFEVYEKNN

| Compound | IC50 [µM] |
| --- | --- |
| Nc1nc2ncc(CCc3ccc(C(=O)N[C@@H](CCC(=O)O)C(=O)O)cc3)cc2c(=O)[nH]1 | 49 |
| Nc1nc(N)c2c(n1)NCC(CCc1ccc(C(=O)NC(CCC(=O)O)C(=O)O)cc1)C2 (centres undefined) [2-{4-[2-(2,4-Diamino-5,6,7,8-tetrahydro-pyrido[2,3-d]pyrimidin-6-yl)-ethyl]-benzoylamino}-pentanedioic acid] | 0.071 |
| Nc1nc(N)c2cc(CCc3ccc(C(=O)NC(CCC(=O)O)C(=O)O)cc3)cnc2n1 (centres undefined) [2-{4-[2-(2,4-Diamino-pyrido[2,3-d]pyrimidin-6-yl)-ethyl]-benzoylamino}-pentanedioic acid] | 0.043 |
| Nc1nc2c(c(=O)[nH]1)CC(CCc1ccc(C(=O)NC(CCC(=O)O)C(=O)O)cc1)CN2 (centres undefined) [(DDATHF) 5,10-Dideazatetrahydrofolic acid2-{4-[2-(2-Amino-4-oxo-3,4,5,6,7,8-hexahydro-pyrido[2,3-d]pyrimidin-6-yl)-ethyl]-benzoylamino}-pentanedioic acid] | 560 |
